Measurements: PubChem BioAssay AID342 (DTP/NCI, 2004)
Where “and” joins values, the source holds several entries; their conditions need not be identical. Equal entries are not always repeated.

Tested on: Swiss mice, Sarcoma 180 sc, mean tumor weight T/C
Experiment: NCI In Vivo Anticancer Drug Screen. Data for tumor model Sarcoma 180 (subcutaneous) in Swiss mice
Conditions: endpoint: mean tumor weight, higher = larger tumour
Outline: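 T/C ratio: treated over vehicle-treated controls, measuring survival or tumor size in transplanted-tumor mice.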

Q: What does the source list for `[Cl][Pt+2]([Cl])([Cl])[Cl].[Na+].[S-]c1ncnc2nc[nH]c12.[S-]c1ncnc2nc[nH]c12`?
A: T/C (dose: 1.1 mg/kg/injection, schedule: Q01DX007 (ip), vehicle: carboxymethylcellulose (CMC)): 92 % of control; T/C (dose: 10.0 mg/kg/injection, schedule: Q01DX007 (ip), vehicle: carboxymethylcellulose (CMC)): 45 % of control; T/C (dose: 19.0 mg/kg/injection, schedule: Q01DX007 (ip), vehicle: carboxymethylcellulose (CMC)): 74 % of control; T/C (dose: 20.0 mg/kg/injection, schedule: Q01DX007 (ip), vehicle: carboxymethylcellulose (CMC)): 40 % of control; T/C (dose: 22.0 mg/kg/injection, schedule: Q#A X014 (ip), vehicle: methylcellulose (MC)): 47 % of control and 50 % of control; T/C (dose: 22.2 mg/kg/injection, schedule: Q#A X014 (ip), vehicle: carboxymethylcellulose (CMC)): 29 % of control; T/C (dose: 29.0 mg/kg/injection, schedule: Q01DX007 (ip), vehicle: carboxymethylcellulose (CMC)): 43 % of control; T/C (dose: 30.0 mg/kg/injection, schedule: Q01DX007 (ip), vehicle: carboxymethylcellulose (CMC)): 54 % of control; T/C (dose: 33.3 mg/kg/injection, schedule: Q#A X014 (ip), vehicle: carboxymethylcellulose (CMC)): 24 % of control; T/C (dose: 44.0 mg/kg/injection, schedule: Q01DX007 (ip), vehicle: carboxymethylcellulose (CMC)): 38 % of control and 41 % of control; T/C (dose: 50.0 mg/kg/injection, schedule: Q#A X014 (ip), vehicle: carboxymethylcellulose (CMC)): 10 % of control; T/C (dose: 50.0 mg/kg/injection, schedule: Q#A X014 (ip), vehicle: methylcellulose (MC)): 24 % of control and 44 % of control; T/C (dose: 65.0 mg/kg/injection, schedule: Q01DX007 (ip), vehicle: carboxymethylcellulose (CMC)): 28 % of control; T/C (dose: 66.0 mg/kg/injection, schedule: Q01DX007 (ip), vehicle: carboxymethylcellulose (CMC)): 57 % of control; T/C (dose: 75.0 mg/kg/injection, schedule: Q#A X014 (ip), vehicle: carboxymethylcellulose (CMC)): 7 % of control; T/C (dose: 75.0 mg/kg/injection, schedule: Q#A X014 (ip), vehicle: methylcellulose (MC)): 16 % of control and 34 % of control; T/C (dose: 220.0 mg/kg/injection, schedule: Q01DX007 (ip), vehicle: carboxymethylcellulose (CMC)): 11 % of control; T/C (dose: 300.0 mg/kg/injection, schedule: Q01DX007 (ip), vehicle: carboxymethylcellulose (CMC)): 1 % of control

Q: What does the source list for `CC(=O)NC(CCC(=O)C=[N+]=N)C(=O)O` (stereo unspecified)?
A: T/C (dose: 0.03 mg/kg/injection, schedule: Q01DX007 (ip), vehicle: water): 62 % of control and 80 % of control; T/C (dose: 0.05 mg/kg/injection, schedule: Q01DX007 (ip), vehicle: water): 58 % of control and 63 % of control; T/C (dose: 0.1 mg/kg/injection, schedule: Q01DX007 (ip), vehicle: water): 13 % of control and 26 % of control; T/C (dose: 0.2 mg/kg/injection, schedule: Q01DX007 (ip), vehicle: water): 1 % of control

Q: Which T/C (dose: 62.5 mg/kg/injection, schedule: Q01DX007 (ip), vehicle: carboxymethylcellulose (CMC)) does the source give for `O=C1Nc2ccccc2/C1=C/c1cccnc1` here?
A: 100 % of control

Q: And the T/C (dose: 125.0 mg/kg/injection, schedule: Q01DX007 (ip), vehicle: carboxymethylcellulose (CMC))?
A: 79 % of control

Q: And the T/C (dose: 250.0 mg/kg/injection, schedule: Q01DX007 (ip), vehicle: carboxymethylcellulose (CMC))?
A: 43 % of control

Q: Which T/C (dose: 0.1 mg/kg/injection, schedule: Q01DX007 (ip), vehicle: saline) does the source give for `CC1=C2C(=CC(C)(C)[C@@H]2O)C(=O)[C@](C)(O)C12CC2` here?
A: 63 % of control

Q: What about the T/C (dose: 0.2 mg/kg/injection, schedule: Q01DX007 (ip), vehicle: saline) of the same molecule?
A: 25 % of control

Q: And the T/C (dose: 0.3 mg/kg/injection, schedule: Q01DX007 (ip), vehicle: saline)?
A: 57 % of control

Q: What about the T/C (dose: 0.4 mg/kg/injection, schedule: Q01DX007 (ip), vehicle: saline) of the same molecule?
A: 28 % of control

Q: What about the T/C (dose: 25.0 micrograms/kg/injection, schedule: Q01DX007 (ip), vehicle: saline) of the same molecule?
A: 70 % of control

Q: What about the T/C (dose: 50.0 micrograms/kg/injection, schedule: Q01DX007 (ip), vehicle: saline) of the same molecule?
A: 102 % of control

Q: What about the T/C (dose: 100.0 micrograms/kg/injection, schedule: Q01DX007 (ip), vehicle: saline) of the same molecule?
A: 84 % of control

Q: And the T/C (dose: 200.0 micrograms/kg/injection, schedule: Q01DX007 (ip), vehicle: saline)?
A: 100 % of control

Q: Which T/C (dose: 65.0 mg/kg/injection, schedule: Q01DX007 (ip), vehicle: saline) does the source give for `O=[N+]([O-])c1ccc2c(N=Nc3c(O)ccc4ccccc34)c(O)cc(S(=O)(=O)O)c2c1` here?
A: 70 % of control

Q: What about the T/C (dose: 95.0 mg/kg/injection, schedule: Q01DX007 (ip), vehicle: saline) of the same molecule?
A: 82 % of control

Q: And the T/C (dose: 145.0 mg/kg/injection, schedule: Q01DX007 (ip), vehicle: saline)?
A: 66 % of control

Q: What about the T/C (dose: 330.0 mg/kg/injection, schedule: Q01DX007 (ip), vehicle: saline) of the same molecule?
A: 49 % of control

Q: What does the source list for `C[C@]12CCC(=O)C=C1CC[C@@H]1[C@@H]2[C@@H](O)C[C@@]2(C)[C@H]1CC[C@]2(O)C(=O)COC(=O)c1ccc([N+](=O)[O-])cc1Cl`?
A: T/C (dose: 12.5 mg/kg/injection, schedule: Q#A X014 (sc), vehicle: steriod suspending solution): 79 % of control; T/C (dose: 25.0 mg/kg/injection, schedule: Q#A X014 (sc), vehicle: steriod suspending solution): 67 % of control; T/C (dose: 50.0 mg/kg/injection, schedule: Q#A X014 (sc), vehicle: steriod suspending solution): 38 % of control; T/C (dose: 100.0 mg/kg/injection, schedule: Q#A X014 (sc), vehicle: steriod suspending solution): 32 % of control

Q: Which results are given for `CC(=O)Nc1c(Cl)c(Cl)c2c(c1Cl)Cc1cc(Cl)c(Cl)cc1-2`?
A: T/C (dose: 3.1 mg/kg/injection, schedule: Q01DX007 (ip), vehicle: carboxymethylcellulose (CMC)): 35 % of control; T/C (dose: 6.2 mg/kg/injection, schedule: Q01DX007 (ip), vehicle: carboxymethylcellulose (CMC)): 52 % of control; T/C (dose: 12.5 mg/kg/injection, schedule: Q01DX007 (ip), vehicle: carboxymethylcellulose (CMC)): 48 % of control and 54 % of control; T/C (dose: 21.0 mg/kg/injection, schedule: Q01DX007 (ip), vehicle: other): 63 % of control; T/C (dose: 32.0 mg/kg/injection, schedule: Q01DX007 (ip), vehicle: other): 39 % of control; T/C (dose: 33.0 mg/kg/injection, schedule: Q01DX007 (ip), vehicle: other): 49 % of control; T/C (dose: 48.0 mg/kg/injection, schedule: Q01DX007 (ip), vehicle: other): 77 % of control; T/C (dose: 49.0 mg/kg/injection, schedule: Q01DX007 (ip), vehicle: other): 40 % of control; T/C (dose: 73.0 mg/kg/injection, schedule: Q01DX007 (ip), vehicle: other): 31 % of control; T/C (dose: 250.0 mg/kg/injection, schedule: Q01DX007 (ip), vehicle: other): 21 % of control and 43 % of control

Q: For `COc1cc2c(c(OC3OC(CO)C(O)C(O)C3O)c1)C(=O)CC(c1ccc(O)cc1)O2` (stereo unspecified), which T/C (dose: 100.0 mg/kg/injection, schedule: Q01DX007 (ip), vehicle: other) is on record?
A: 90 % of control

Q: What about the T/C (dose: 200.0 mg/kg/injection, schedule: Q01DX007 (ip), vehicle: other) of the same molecule?
A: 71 % of control

Q: With `Nc1nc(=S)c2ncn(C3OC(CO)C(O)C3O)c2[nH]1` (stereo unspecified) as the molecule, how does the T/C (dose: 0.62 mg/kg/injection, schedule: Q#A X014 (ip), vehicle: carboxymethylcellulose (CMC)) read?
A: 86 % of control

Q: And the T/C (dose: 1.25 mg/kg/injection, schedule: Q#A X014 (ip), vehicle: carboxymethylcellulose (CMC))?
A: 91 % of control

Q: What about the T/C (dose: 1.3 mg/kg/injection, schedule: Q#A X014 (ip), vehicle: carboxymethylcellulose (CMC)) of the same molecule?
A: 86 % of control and 95 % of control

Q: What about the T/C (dose: 2.0 mg/kg/injection, schedule: Q#A X014 (ip), vehicle: carboxymethylcellulose (CMC)) of the same molecule?
A: 83 % of control and 94 % of control

Q: What about the T/C (dose: 2.5 mg/kg/injection, schedule: Q#A X014 (ip), vehicle: carboxymethylcellulose (CMC)) of the same molecule?
A: 86 % of control

Q: And the T/C (dose: 2.65 mg/kg/injection, schedule: Q#A X014 (ip), vehicle: carboxymethylcellulose (CMC))?
A: 51 % of control and 74 % of control

Q: And the T/C (dose: 5.0 mg/kg/injection, schedule: Q#A X014 (ip), vehicle: carboxymethylcellulose (CMC))?
A: 90 % of control

Q: Which results are given for `Nc1c(Br)cc2c(c1Br)Cc1cc([N+](=O)[O-])ccc1-2`?
A: T/C (dose: 74.0 mg/kg/injection, schedule: Q01DX007 (ip), vehicle: other): 77 % of control; T/C (dose: 111.0 mg/kg/injection, schedule: Q#A X014 (ip), vehicle: saline): 27 % of control; T/C (dose: 148.0 mg/kg/injection, schedule: Q01DX007 (ip), vehicle: carboxymethylcellulose (CMC)): 92 % of control; T/C (dose: 148.0 mg/kg/injection, schedule: Q01DX007 (ip), vehicle: other): 96 % of control; T/C (dose: 148.0 mg/kg/injection, schedule: Q01DX007 (ip), vehicle: saline): 56 % of control; T/C (dose: 166.5 mg/kg/injection, schedule: Q#A X014 (ip), vehicle: saline): 21 % of control; T/C (dose: 222.0 mg/kg/injection, schedule: Q01DX007 (ip), vehicle: other): 42 % of control; T/C (dose: 222.0 mg/kg/injection, schedule: Q01DX007 (ip), vehicle: saline): 64 % of control; T/C (dose: 250.0 mg/kg/injection, schedule: Q#A X014 (ip), vehicle: saline): 21 % of control; T/C (dose: 333.0 mg/kg/injection, schedule: Q01DX007 (ip), vehicle: other): 40 % of control; T/C (dose: 333.0 mg/kg/injection, schedule: Q01DX007 (ip), vehicle: saline): 67 % of control; T/C (dose: 500.0 mg/kg/injection, schedule: Q01DX007 (ip), vehicle: saline): 54 % of control

Q: For `NNc1nncc2ccccc12`, which T/C (dose: 37.5 mg/kg/injection, schedule: Q01DX007 (ip), vehicle: carboxymethylcellulose (CMC)) is on record?
A: 116 % of control

Q: And the T/C (dose: 75.0 mg/kg/injection, schedule: Q01DX007 (ip), vehicle: carboxymethylcellulose (CMC))?
A: 100 % of control

Q: For `O=C(CCBr)N1CCCN(C(=O)CCBr)CC1`, which T/C (dose: 147.0 mg/kg/injection, schedule: Q01DX007 (ip), vehicle: carboxymethylcellulose (CMC)) is on record?
A: 49 % of control

Q: What about the T/C (dose: 223.0 mg/kg/injection, schedule: Q01DX007 (ip), vehicle: carboxymethylcellulose (CMC)) of the same molecule?
A: 46 % of control
